One series deals with T1, hERG channels (Homo sapiens, UniProt Q12809).
T1 construct: expressed in transfected cells
As to the kind of experiment: hERG patch clamp on clone hERG channels in mammalian cells. The class given is cell-based. Conditions: test article 1 μm, cisapride positive control, read-out: Experimental hERG Activity. How it is done:
hERG activity was measured using a patch clamp method on clone hERG channels in mammalian cells. The concentration of test articles was 1 μm and a comparison was made to both a positive (cisapride) and negative (vehicle) control.
(In general: hERG is a cardiac potassium channel; its block is linked to QT prolongation.)

Structures can show the parent of a compound that is named as a salt.

The text below walks through data of US9458089B2, “Phenoxy alkyl diethanolamine and diisopropanolamine compounds for delivering active agents” (EMISPHERE TECHNOLOGIES, INC., priority 2012, dated 2016).

T1 sequence (Q12809 whole entry): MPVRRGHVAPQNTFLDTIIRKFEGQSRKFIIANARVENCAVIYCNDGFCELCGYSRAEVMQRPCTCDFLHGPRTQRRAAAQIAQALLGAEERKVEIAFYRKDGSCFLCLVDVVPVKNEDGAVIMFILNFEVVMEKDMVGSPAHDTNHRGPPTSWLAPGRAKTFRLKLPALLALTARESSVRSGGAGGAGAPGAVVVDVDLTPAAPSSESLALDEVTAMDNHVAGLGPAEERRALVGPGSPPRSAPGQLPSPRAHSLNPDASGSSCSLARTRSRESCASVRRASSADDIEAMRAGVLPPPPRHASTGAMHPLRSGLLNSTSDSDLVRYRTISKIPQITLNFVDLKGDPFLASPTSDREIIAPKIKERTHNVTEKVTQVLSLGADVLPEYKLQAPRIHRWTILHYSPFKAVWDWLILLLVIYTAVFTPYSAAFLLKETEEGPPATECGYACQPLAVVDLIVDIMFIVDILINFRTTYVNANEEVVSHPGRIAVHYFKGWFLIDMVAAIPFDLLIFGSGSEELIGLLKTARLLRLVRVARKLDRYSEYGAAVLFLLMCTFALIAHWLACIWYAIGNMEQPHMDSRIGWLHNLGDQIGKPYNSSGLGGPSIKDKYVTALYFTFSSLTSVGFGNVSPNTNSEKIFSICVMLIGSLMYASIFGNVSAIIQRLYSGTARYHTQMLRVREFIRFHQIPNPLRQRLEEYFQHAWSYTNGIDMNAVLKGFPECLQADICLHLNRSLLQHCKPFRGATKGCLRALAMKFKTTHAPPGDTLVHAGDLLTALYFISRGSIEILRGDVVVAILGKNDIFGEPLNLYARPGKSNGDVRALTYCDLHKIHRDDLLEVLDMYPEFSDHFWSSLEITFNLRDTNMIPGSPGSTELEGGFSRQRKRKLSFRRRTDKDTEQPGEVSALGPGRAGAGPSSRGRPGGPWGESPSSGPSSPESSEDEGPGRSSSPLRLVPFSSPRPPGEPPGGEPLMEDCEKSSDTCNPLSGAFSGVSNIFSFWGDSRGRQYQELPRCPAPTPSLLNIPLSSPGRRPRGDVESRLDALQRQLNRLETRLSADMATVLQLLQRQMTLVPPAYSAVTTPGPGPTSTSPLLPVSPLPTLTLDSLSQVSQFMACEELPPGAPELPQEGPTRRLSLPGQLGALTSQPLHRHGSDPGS

Turning to `Cc1ccc(C)c(OCCCCCCN(CCO)CCO)c1`, the IC50 at hERG channels is below 2000 nM.

Take `Cc1ccc(C)c(OCCCCCCCN2CCOCC2)c1`: at hERG channels, the IC50 is below 2000 nM.

For the compound `Cc1ccc(C)c(OCCCCCCCN(CCO)CCO)c1`, the IC50 on hERG channels is below 2000 nM.

As for `OCCN(CCO)CCCCCCCCOc1ccccc1O`, the IC50 at hERG channels lay within 2000 to 5000 nM.

The melting point is the temperature, or range, at which the solid turns liquid. In turn, `Cc1ccc(F)c(OCCCCN(CCO)CCO)c1` (as salt: hydrochloride) [Compound 2-FPBD, 4-(2-fluoro-5-methylphenoxy)butyldiethanolamine] yielded a melting point of 83 to 86 °C.

Regarding `OCCN(CCO)CCCCCCOc1ccccc1O` (as salt: hydrochloride) [Compound 2-HPHD, 6-(2-hydroxyphenoxyl)hexyldiethanolamine], the melting point fell in the range of 95 to 97 °C.
